In brackets after ≈: the same amount, converted by molar mass.
Key:
P. aeruginosa CDC-0110 = test: microbe, parasite or virus in culture; type: cell-based; conditions: Pseudomonas aeruginosa, CDC0110, read-out: Minimum inhibitory concentration, P. aeruginosa CDC-0110
A. baumannii 1258916 = test: microbe, parasite or virus in culture; type: cell-based, Acinetobacter baumannii; conditions: Acinetobacter baumannii, 1258916, read-out: MIC, A. baumannii 1258916
N. gonorrhoeae CDC-0197 = test: Liquid broth MIC in Fastidious broth; conditions: Neisseria gonorrhoeae, CDC0197, read-out: Minimum Inhibitory Concentration, CDC-0197
[1] = target: T1, PBP3 from Pseudomonas aeruginosa (PAO1) (Pseudomonas aeruginosa, UniProt G3XD46); test: Bocillin-FL fluorescence polarization competition binding, P. aeruginosa PBP3; conditions: Binding affinity to P. aeruginosa PBP3; fluorescence polarization competition binding assay using Bocillin-FL; read-out: P. aeruginosa PBP3 Potency
T1 construct: made in house
In short: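 Purified PBPs pre-incubated with inhibitor (E. coli PBP3 1.5 μM, 30 min; P. aeruginosa PBP3 0.75 μM, A. baumannii PBP1a 1 μM and PBP3 0.2 μM, 15 min), then Bocillin-FL 0.1 μM (0.05 μM for PBP1a) added; FP read up to 60 min. EC50 = concentration halving bound Bocillin-FL.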

[2] = tested on: N. gonorrhoeae ATCC 49226; test: Liquid broth MIC in Fastidious broth; conditions: Neisseria gonorrhoeae, ATCC49226, read-out: Minimum Inhibitory Concentration, ATCC 49226
N. gonorrhoeae WHO X = test: Liquid broth MIC in Fastidious broth; conditions: Neisseria gonorrhoeae, read-out: Minimum Inhibitory Concentration, WHO X
A. baumannii ATCC 17978 = test: microbe, parasite or virus in culture; type: cell-based; conditions: Acinetobacter baumannii, ATCC17978, read-out: MIC, A. baumannii ATCC 17978
A. baumannii CDC-0033 = test: microbe, parasite or virus in culture; type: cell-based; conditions: Acinetobacter baumannii, CDC0033, read-out: MIC, A. baumannii CDC-0033
N. gonorrhoeae MS11 = test: Liquid broth MIC in Fastidious broth; conditions: Neisseria gonorrhoeae, MS11, read-out: Minimum Inhibitory Concentration, MS11
Experimental: Additional antibacterial testing of the series was performed in 8 reference strains of N. gonorrhoeae (ATCC 49226, FA1090, MS 11, WHO G, WHO L, WHO M, WHO K, WHO X, WHO Z, WHO Q, CDC-0197). ATCC 49226, FA1090, MS11, WHO G, WHO L, and WHO M produce wild type or wild-type like PBP2. WHO K, WHO X, WHO Z, WHO Q, and CDC-0197 produce mosaic PBP2. Liquid broth-based assays were used for antibacterial testing of PBP inhibitors in Neisseria gonorrhoeae. Briefly, cryo-preserved bacterial cultures of clinical strains were streaked for isolation on Chocolate Agar (72 g/L (2×) GC Agar Base (BD #228950) and 2% (2×) Hemoglobin was autoclaved at 121° C. for 20 minutes to sterilize. Once cooled to ˜50° C. the 2×GC Agar Base and 2× Hemoglobin solutions are combined and 1% IsoVitaleX Enrichment (BD #211876) was added to the solution). Strains were incubated at 36° C. and 5% CO2 to allow growth of colonies, 24 hours before inoculum preparation. 2-fold serial dilutions of test compounds were conducted in a 96 well plate with a final volume of 75 μL per well at 2-fold the final desired concentration in Fastidious broth (Remel #R07664). For preparation of assay inoculum, a direct suspension was prepared by aseptically swabbing 10-15 colonies from agar plates into culture tubes containing 2 mL of fresh sterile saline. After the dilution plates were set up, direct suspensions were then diluted in a cuvette containing sterile saline and the optical density was measured at 600 nm. Inocula were diluted such that 75 μL of this culture in Fastidious broth results in a starting bacterial concentration of 5×10^5 CFU/mL when added to the dilution plates. The plates were incubated for ˜24 hours at 36° C. and 5% CO2.

A. baumannii CDC-0036 = test: microbe, parasite or virus in culture; type: cell-based; conditions: Acinetobacter baumannii, CDC0036, read-out: MIC, A. baumannii CDC-0036
A. baumannii ATCC 19606 = test: microbe, parasite or virus in culture; type: cell-based; conditions: Acinetobacter baumannii, ATCC19606, read-out: MIC, A. baumannii ATCC 19606
N. gonorrhoeae WHO M = test: Liquid broth MIC in Fastidious broth; conditions: Neisseria gonorrhoeae, read-out: Minimum Inhibitory Concentration, WHO M
P. aeruginosa CDC-0095 = test: microbe, parasite or virus in culture; type: cell-based; conditions: Pseudomonas aeruginosa, CDC0095, read-out: Minimum inhibitory concentration, P. aeruginosa CDC-0095
A. baumannii CDC-0083 = test: microbe, parasite or virus in culture; type: cell-based; conditions: Acinetobacter baumannii, CDC0083, read-out: MIC, A. baumannii CDC-0083
P. aeruginosa ATCC 35151 = test: microbe, parasite or virus in culture; type: cell-based; conditions: Pseudomonas aeruginosa, ATCC35151, read-out: Minimum inhibitory concentration, P. aeruginosa ATCC 35151

T1 sequence (G3XD46 whole entry): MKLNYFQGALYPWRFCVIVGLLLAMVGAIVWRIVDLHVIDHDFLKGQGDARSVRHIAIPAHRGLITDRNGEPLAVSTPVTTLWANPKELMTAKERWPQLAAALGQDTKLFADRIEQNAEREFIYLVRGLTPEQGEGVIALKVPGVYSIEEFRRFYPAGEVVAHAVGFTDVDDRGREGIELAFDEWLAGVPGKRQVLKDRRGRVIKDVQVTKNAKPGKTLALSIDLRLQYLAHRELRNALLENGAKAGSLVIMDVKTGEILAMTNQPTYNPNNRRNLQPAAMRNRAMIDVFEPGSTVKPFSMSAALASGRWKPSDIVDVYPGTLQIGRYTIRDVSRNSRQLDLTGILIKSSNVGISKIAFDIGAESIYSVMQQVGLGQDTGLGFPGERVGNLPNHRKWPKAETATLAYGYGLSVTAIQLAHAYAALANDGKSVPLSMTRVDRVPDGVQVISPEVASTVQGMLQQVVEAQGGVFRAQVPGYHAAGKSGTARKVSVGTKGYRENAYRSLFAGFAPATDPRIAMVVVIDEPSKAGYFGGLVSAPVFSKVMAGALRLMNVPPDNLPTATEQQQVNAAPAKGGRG

| SMILES | MIC (P. aeruginosa CDC-0110) | MIC (A. baumannii 1258916) | MIC (N. gonorrhoeae CDC-0197) | IC50 [1] | MIC [2] | MIC (N. gonorrhoeae WHO X) | MIC (A. baumannii ATCC 17978) | MIC (A. baumannii CDC-0033) | MIC (N. gonorrhoeae MS11) | MIC (A. baumannii CDC-0036) | MIC (A. baumannii ATCC 19606) | MIC (N. gonorrhoeae WHO M) | MIC (P. aeruginosa CDC-0095) | MIC (A. baumannii CDC-0083) | MIC (P. aeruginosa ATCC 35151) |
| --- | --- | --- | --- | --- | --- | --- | --- | --- | --- | --- | --- | --- | --- | --- | --- |
| O=C(NCCS(=O)(=O)N1CCN(C(=O)N[C@H](C(=O)N[C@H]2Cc3ccc(F)c(C(=O)O)c3OB2O)c2cc(F)c(O)c(O)c2Cl)C1=O)c1nccs1 [Example 263, (R)-3-((S)-2-(2-chloro-5-fluoro-3,4-dihydroxyphenyl)-2-(2-oxo-3-((2-(thiazole-2-carboxamido)ethyl)sulfonyl)imidazolidine-1-carboxamido)acetamido)-7-fluoro-2-hydroxy-3,4-dihydro-2H-benzo[e][1,2]oxaborinine-8-carboxylic acid] | > 128 µg/mL | 32 to 64 µg/mL (≈ 41.4 to 82.8 µM) | > 64 µg/mL | 10 to 50 µM | > 64 µg/mL | > 64 µg/mL | < 1 µg/mL | 32 to 64 µg/mL (≈ 41.4 to 82.8 µM) | > 64 µg/mL | 32 to 64 µg/mL (≈ 41.4 to 82.8 µM) | 8 to 16 µg/mL (≈ 10.4 to 20.7 µM) | > 64 µg/mL | > 128 µg/mL | 2 to 4 µg/mL (≈ 2.59 to 5.18 µM) | 2 to 4 µg/mL (≈ 2.59 to 5.18 µM) |
| O=C(NCCS(=O)(=O)N1CCN(C(=O)N[C@@H](C(=O)N[C@H]2Cc3ccc(F)c(C(=O)O)c3OB2O)c2cc(F)c(O)c(O)c2Cl)C1=O)c1nccs1 [Example 264, (R)-3-((R)-2-(2-chloro-5-fluoro-3,4-dihydroxyphenyl)-2-(2-oxo-3-((2-(thiazole-2-carboxamido)ethyl)sulfonyl)imidazolidine-1-carboxamido)acetamido)-7-fluoro-2-hydroxy-3,4-dihydro-2H-benzo[e][1,2]oxaborinine-8-carboxylic acid] | < 1 µg/mL | < 1 µg/mL | 16 to 32 µg/mL (≈ 20.7 to 41.4 µM) | < 10 µM | 16 to 32 µg/mL (≈ 20.7 to 41.4 µM) | > 64 µg/mL | < 1 µg/mL | < 1 µg/mL | 16 to 32 µg/mL (≈ 20.7 to 41.4 µM) | < 1 µg/mL | < 1 µg/mL | 4 to 8 µg/mL (≈ 5.18 to 10.4 µM) | 2 to 4 µg/mL (≈ 2.59 to 5.18 µM) | < 1 µg/mL | < 1 µg/mL |
| O=C(O)c1c(F)ccc2c1OB(O)[C@@H](NC(=O)C(NC(=O)N1CCN(S(=O)(=O)CCNC(=O)[C@@H]3CCCN3)C1=O)c1cc(F)c(O)c(O)c1Cl)C2 (stereo partly drawn) [Example 265, (3R)-3-(2-(2-chloro-5-fluoro-3,4-dihydroxyphenyl)-2-(2-oxo-3-((2-((S)-pyrrolidine-2-carboxamido)ethyl)sulfonyl)imidazolidine-1-carboxamido)acetamido)-7-fluoro-2-hydroxy-3,4-dihydro-2H-benzo[e][1,2]oxaborinine-8-carboxylic acid] | < 1 µg/mL | 2 to 4 µg/mL (≈ 2.64 to 5.27 µM) | 16 to 32 µg/mL (≈ 21.1 to 42.2 µM) | < 10 µM | 16 to 32 µg/mL (≈ 21.1 to 42.2 µM) | > 64 µg/mL | < 1 µg/mL | 8 to 16 µg/mL (≈ 10.5 to 21.1 µM) | 16 to 32 µg/mL (≈ 21.1 to 42.2 µM) | 2 to 4 µg/mL (≈ 2.64 to 5.27 µM) | < 1 µg/mL | 4 to 8 µg/mL (≈ 5.27 to 10.5 µM) | 2 to 4 µg/mL (≈ 2.64 to 5.27 µM) | < 1 µg/mL | < 1 µg/mL |
| O=C(NCCS(=O)(=O)N1CCN(C(=O)NC(C(=O)N[C@H]2Cc3ccc(F)c(C(=O)O)c3OB2O)c2cc(F)c(O)c(O)c2Cl)C1=O)Nc1cccc(O)c1 (stereo partly drawn) [Example 266, (3R)-3-(2-(2-chloro-5-fluoro-3,4-dihydroxyphenyl)-2-(3-((2-(3-(3-hydroxyphenyl)ureido)ethyl)sulfonyl)-2-oxoimidazolidine-1-carboxamido)acetamido)-7-fluoro-2-hydroxy-3,4-dihydro-2H-benzo[e][1,2]oxaborinine-8-carboxylic acid] | 2 to 4 µg/mL (≈ 2.51 to 5.02 µM) | < 1 µg/mL | 16 to 32 µg/mL (≈ 20.1 to 40.2 µM) | < 10 µM | 16 to 32 µg/mL (≈ 20.1 to 40.2 µM) | > 64 µg/mL | < 1 µg/mL | 2 to 4 µg/mL (≈ 2.51 to 5.02 µM) | 16 to 32 µg/mL (≈ 20.1 to 40.2 µM) | 2 to 4 µg/mL (≈ 2.51 to 5.02 µM) | < 1 µg/mL | 4 to 8 µg/mL (≈ 5.02 to 10 µM) | 8 to 16 µg/mL (≈ 10 to 20.1 µM) | < 1 µg/mL | < 1 µg/mL |
